Where “and” joins values, the source holds several entries; their conditions need not be identical. Equal entries are not always repeated.
What was measured:
in vivo [1] = conditions: Sprague-Dawley, rat, po
Description: Cmax in po dosed Sprague-Dawley rat administered for 14 days

in vivo [2] = conditions: beagle, dog, po
Description: Cmax in po dosed beagle dog administered for 7 days

in vivo [3] = conditions: Sprague-Dawley, rat, plasma, po
Description: AUC (0 to 24 hrs) in po dosed Sprague-Dawley rat administered for 14 days

[4] = AUC in beagle dog at 50 mg/kg, po administered for 7 days measured on day 1; format: ADME, organism-based, Canis lupus familiaris; design: dose 50 mg/kg, route oral; conditions: plasma
in vivo [5] = conditions: Sprague-Dawley, rat, po; remark: listed apart in the source
Description: Tmax in po dosed Sprague-Dawley rat administered for 4 days

[6] = AUC in Sprague-Dawley rat at 10 to 300 mg/kg, po administered for 14 days measured on day 1; format: ADME, organism-based; design: dose 10-300 mg/kg, route oral; conditions: plasma
in vivo [7] = conditions: Sprague-Dawley, rat, po; remark: listed apart in the source
Description: Toxicity in po dosed Sprague-Dawley rat administered for 14 days

in vivo [8] = conditions: beagle, dog, po; remark: listed apart in the source
Description: Tmax in po dosed beagle dog administered for 7 days

Canis familiaris [9] = test: Toxicity in beagle dog assessed as testicular degradation at 30 mg/kg, po administered for 7 days; format: organism-based, Canis lupus familiaris; design: dose 30 mg/kg, route oral; conditions: in vivo, 168 h
in vivo [10] = conditions: beagle, dog, po, 50 mg/kg
in vivo [11] = conditions: beagle, dog, po; remark: listed apart in the source
Description: Toxicity in po dosed beagle dog administered for 7 days

Histamine H3 receptor [12] = molecular target: T1, Histamine H3 receptor (Homo sapiens, UniProt Q9Y5N1)
Description: Antagonist activity at human histamine H3 receptor expressed in human HEK293 cells assessed as inhibition of forskolin-induced cAMP release pretreated 10 mins prior forskolin stimulation measured after 4.5 hrs by spectrofluorimetric analysis

Histamine H3 receptor [13] = molecular target: T2, Histamine H3 receptor (Rattus norvegicus, UniProt Q9QYN8)
Description: Antagonist activity at rat histamine H3 receptor expressed in human HEK293 cells assessed as inhibition of forskolin-induced cAMP release pretreated 10 mins prior forskolin stimulation measured after 4.5 hrs by spectrofluorimetric analysis

Canis familiaris [14] = test: Toxicity in beagle dog assessed as compound-induced cadiomyocyte vacuole formation at 30 mg/kg, po administered for 7 days; format: organism-based, Canis lupus familiaris; design: dose 30 mg/kg, route oral; conditions: in vivo, 168 h
Canis familiaris [15] = test: Toxicity in beagle dog assessed as convulsion at 50 mg/kg, po administered for 7 days measured on day 2; format: organism-based, Canis lupus familiaris; design: dose 50 mg/kg, route oral; conditions: in vivo, 168 h
in vitro [16] = conditions: human, Caco-2
Description: Permeability across apical to basolateral side in human Caco2 cells at 2 uM

Histamine H3 receptor [17] = molecular target: T2, Histamine H3 receptor; remark: listed apart in the source
Description: Displacement of [3H]-n-alpha-methylhistamine from rat histamine H3 receptor homogenate after 60 mins by scintillation counting

in vivo [18] = conditions: beagle, dog, plasma, po
Description: AUC (0 to 24 hrs) in po dosed beagle dog administered for 7 days

Liver microsomes = conditions: human
Description: Unbound intrinsic clearance in human liver microsomes

in vitro [19] = conditions: human, liver microsomes
Description: Half life in human liver microsomes

Histamine H3 receptor [20] = molecular target: T1, Histamine H3 receptor; remark: listed apart in the source
Description: Displacement of [3H]-n-alpha-methylhistamine from human histamine H3 receptor homogenate after 60 mins by scintillation counting

[21] = AUC in beagle dog at 30 mg/kg, po administered for 7 days; format: ADME, organism-based, Canis lupus familiaris; design: dose 30 mg/kg, route oral; conditions: plasma
MDR1 (human) = test: in vitro; conditions: dog, MDCK-MDR1
Description: Efflux ratio of permeability across basal to apical side over apical to basolateral side in dog MDCK cells expressing human MDR1

in vitro [22] = conditions: human, plasma
Description: Fraction unbound in human plasma

[23] = human, thle, 24 h
Description: Toxicity in human THLE cells assessed as drug-induced phospholipid accumulation after 24 hrs by Hoechst staining-based microscopic analysis

in vivo [24] = conditions: Sprague-Dawley, rat, po; remark: listed apart in the source
Description: Tmax in po dosed Sprague-Dawley rat administered for 14 days

in vivo [25] = conditions: Sprague-Dawley, rat, po; remark: listed apart in the source
Description: Oral bioavailability in Sprague-Dawley rat

Homo sapiens [26] = species on record: Homo sapiens; test: Selectivity ratio of Ki for human histamine H2 receptor to Ki for human histamine H3 receptor
Homo sapiens [27] = species on record: Homo sapiens; test: Selectivity ratio of Ki for human histamine H4 receptor to Ki for human histamine H3 receptor
Homo sapiens [28] = species on record: Homo sapiens; test: Selectivity ratio of Ki for human histamine H1 receptor to Ki for human histamine H3 receptor
in vitro [29] = conditions: rat, plasma
Description: Fraction unbound in rat plasma

Rattus norvegicus [30] = test: Toxicity in Sprague-Dawley rat assessed as compound-induced phospholipidosis in lung at >= 50 mg/kg, po administered for 14 days; format: organism-based; design: dose 50 mg/kg, route oral; conditions: in vivo, 336 h
Rattus norvegicus [31] = test: Toxicity in Sprague-Dawley rat assessed as compound-induced phospholipidosis in liver at >= 50 mg/kg, po administered for 14 days; format: organism-based; design: dose 50 mg/kg, route oral; conditions: in vivo, 336 h
[32] = AUC in Sprague-Dawley rat at >[…] mg/kg, po administered for 14 days measured on day 1; format: ADME, organism-based; conditions: plasma, 50 mg/kg

T1 sequence (Q9Y5N1 whole entry): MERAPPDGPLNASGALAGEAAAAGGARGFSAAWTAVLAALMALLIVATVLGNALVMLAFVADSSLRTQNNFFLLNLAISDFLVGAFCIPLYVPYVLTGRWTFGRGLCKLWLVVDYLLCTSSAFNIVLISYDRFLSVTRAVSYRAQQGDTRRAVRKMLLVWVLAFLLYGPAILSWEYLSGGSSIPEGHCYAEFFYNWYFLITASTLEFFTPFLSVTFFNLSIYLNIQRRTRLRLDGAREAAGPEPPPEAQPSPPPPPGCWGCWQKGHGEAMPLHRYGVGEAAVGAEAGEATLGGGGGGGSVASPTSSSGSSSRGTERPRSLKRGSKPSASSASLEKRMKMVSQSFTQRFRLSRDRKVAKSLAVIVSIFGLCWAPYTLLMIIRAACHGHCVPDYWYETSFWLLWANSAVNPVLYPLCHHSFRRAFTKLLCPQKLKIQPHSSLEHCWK
T2 sequence (Q9QYN8 whole entry): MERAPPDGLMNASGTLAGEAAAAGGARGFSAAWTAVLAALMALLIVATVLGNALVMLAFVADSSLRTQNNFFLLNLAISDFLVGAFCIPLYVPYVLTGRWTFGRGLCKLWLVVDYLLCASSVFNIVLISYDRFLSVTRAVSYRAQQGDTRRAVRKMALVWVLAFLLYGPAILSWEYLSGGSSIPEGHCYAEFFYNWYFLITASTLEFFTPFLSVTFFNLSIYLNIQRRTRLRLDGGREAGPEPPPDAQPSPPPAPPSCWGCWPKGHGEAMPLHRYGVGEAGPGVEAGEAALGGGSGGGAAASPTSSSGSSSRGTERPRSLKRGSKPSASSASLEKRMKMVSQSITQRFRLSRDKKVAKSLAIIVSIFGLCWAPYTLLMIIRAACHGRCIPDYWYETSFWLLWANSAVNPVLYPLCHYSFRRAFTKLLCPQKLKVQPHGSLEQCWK
Description for physchem: Dissociation constant, pKa of the compound

SMILES | Cmax at 336 h (in vivo [1]) [µM] | Cmax at 168 h (in vivo [2]) [µM] | AUC at 24 h (in vivo [3]) [µg·h/mL] | Tmax at 96 h (in vivo [5]) [min] | MTD at 336 h (in vivo [7]) [mg/kg] | Tmax at 168 h (in vivo [8]) [min] | MTD at 168 h (in vivo [11]) [mg/kg] | Ki (Histamine H3 receptor [12]) | pKa (physchem) | Ki (Histamine H3 receptor [13]) [µM] | Papp A→B at 2 µM (in vitro [16]) [nm/s] | Ki (Histamine H3 receptor [17]) [µM] | AUC at 24 h (in vivo [18]) [µg·h/mL] | CL free (Liver microsomes) [L/h/kg] | half-life (in vitro [19]) [min] | Ki (Histamine H3 receptor [20]) | efflux ratio (MDR1 (human)) | fraction unbound (in vitro [22]) | MED [23] [µM] | Tmax at 336 h (in vivo [24]) [min] | other results
CC(=O)N(C)C[C@H]1C[C@H](c2ccc(CN3CCCC3)c(Cl)c2)C1 | 6.29 | 5.13 | 4.44 | 30 | ≥ 300 | 30 | < 30 | 0.0033 µM | 9.3 | 0.021 | 534 | 0.16 | 2.91 | < 0.48 | > 120 | 0.014 µM and 0.0129 µM | 1.27 | 0.24 | 245.3 | 30 | AUC at 168 h [4]: 4.78 µg·h/mL; AUC at 336 h [6]: ≤ 4.44 µg·h/mL; Activity (Canis familiaris [9]): Toxic; Cmax (in vivo [10]): 3.2 µg/mL; Activity (Canis familiaris [14]): Toxic; Activity (Canis familiaris [15]): Toxic; AUC at 168 h [21]: 2.91 µg·h/mL
CC(C)CNC(=O)[C@H]1C[C@@](F)(c2ccc(CN3CCCC3)c(F)c2)C1 [PF-03654764] | 23 | 18 | 67.4 | 30 | ≥ 300 | 30 | ≥ 15 | 0.0012 µM and 0.00105 µM | 9.2 | 0.0079 | 388 | 0.019 | 18.2 | < 0.3 | > 120 | 0.0014 µM | 0.96 | 0.34 |  | 30 | bioavailability (in vivo [25]): 20.2%; Ratio Ki (Homo sapiens [26]): > 1000; Ratio Ki (Homo sapiens [27]): > 1000; Ratio Ki (Homo sapiens [28]): > 1000; fraction unbound (in vitro [29]): 0.56
c1cnc(OC[C@H]2C[C@H](c3ccc(CN4CCCC4)cc3)C2)nc1 | 0.402 |  | 1.28 | 30 | ≥ 5 | 30 |  | 0.012 µM | 9.8 | 0.079 | 325 | 0.082 |  | < 0.48 | > 120 | 0.0087 µM | 0.9 | 0.44 | 119.5 | 30 | Activity (Rattus norvegicus [30]): Toxic; Activity (Rattus norvegicus [31]): Toxic; AUC at 336 h [32]: 21.3 µg·h/mL; fraction unbound (in vitro [29]): 0.47
